Laboratory results reported in publication PMC12114375, “Discovery of Hydrazineyl Amide Derivative of Pseudolaric Acid B for Reprogramming Tumor-Associated Macrophages Against Tumor Growth” (Molecules, 2025).

System: ARG1, NOS2, CD206 and MHC II mRNA expression in BMDMs
Assay: qRT-PCR of ARG1, NOS2, CD206, MHC II in BMDMs
Type: cell-based, mouse
Details: BMDMs stimulated with IL-4/IL-13, different concentrations, 12 h
Method: We also extended the test to primary murine macrophages derived from bone marrow (BMDMs), which were cultured in vitro with recombinant mouse M-CSF for 6 days. The BMDMs were then stimulated with IL-4/IL-13, leading to their transformation into M2-like pro-tumoral macrophages. This transformation was characterized by an increase in both ARG1 and CD206 expression and a decrease in both NOS2 and MHC II expression. […] Subsequently, we assessed the capacity of compound 12 to inhibit the M2-like polarization of macrophages using CSF-1-differentiated mouse BMDMs. These cells were treated with IL-4 and IL-13 for 48 h, and the expression levels of CD206, an M2-type marker, and CD86, an M1-type marker, were analyzed via flow cytometry. […]
Figure 2 Compound 12 inhibits the M2-like polarized phenotype of macrophages. […] The expression levels of the markers CD206 and CD86 on induced macrophages were determined by flow cytometry, and the mean fluorescence intensity (MFI) was analyzed with FlowJo (C), or the cells were lysed and immunoblotted to detect the indicated proteins (D). […] Data are represented as means ± SD. ^### p < 0.001 vs. non-stimulated control group, * p < 0.05, ** p < 0.01, *** p < 0.001 vs. stimulated control group. p-values were determined using one-way ANOVA.

COC(=O)C1=CC[C@@]23CC[C@@H]([C@@](C)(/C=C/C=C(\C)C(=O)NNCCO)OC2=O)[C@@]3(OC(C)=O)CC1 [compound 12, Methyl(3R,4S,4aS,9aR)-4a-acetoxy-3-((1E,3E)-5-(2-(2-hydroxyethyl)hydrazineyl)-4-methyl-5-oxopenta-1,3-dien-1-yl)-3-methyl-1-oxo-3,4,4a,5,6,9-hexahydro-1H-4,9a-ethanocyclohepta[c]pyran-7-carboxylate]
IL-4/IL-13-induced increase in ARG1 and CD206 and decrease in NOS2 and MHC II expression: significantly reversed these trends
